Target: T1, human alpha-thrombin (Homo sapiens, UniProt P00734)
T1 construct: were reacted with 1.3 picomoles of human alpha-thrombin
Test: Thrombin inhibition, residual amidolysis of chromogenic substrate S-2238
Format: biochemical
Details: 0.13-1.3 picomoles hirudin with 1.3 picomoles human alpha-thrombin, 0.05 M Tris-HCl pH 7.4, 0.1% BSA, 1 hour at 22° C.
Experimental: Aliquots of the supernatants were diluted with the Tris-BSA buffer and the reaction initiated by addition of S-2238. Reaction velocities were monitored at 410 nanometers and used to determine thrombin activity. Moles of hirudin analog and its derivatives in each assay were determined by radioiodinated hirudin analog tracer.

Thrombin Inhibition (Specific Activity: % of H-Tyr): 100 % of H-Tyr
Substance: rHV2 Phe^3 Gln^33 Tyr^35 Lys^47 Asp^63 [H-Tyr]

— patent publication US6028170A, “Analogs of hirudin” (Baxter International Inc., priority 1998, dated 2000)
